According to patent publication US20230095836A1, “SUBSTITUTED 5,6-DIPHENYL-3(2H)-PYRIDAZINONES FOR USE AS FUNGICIDES” (FMC Corporation, priority 2020, published 2023):

Columns and labels:
Assay type in all cases: in vivo
Conditions in all cases: 50 ppm
[1] = system: Blumeria graminis f. sp. tritici; test: Test C: test suspension sprayed on wheat seedlings, inoculated next day with Blumeria graminis f. sp. tritici (wheat powdery mildew); visual disease rating (100 = 100% disease control, 0 = no control; dash = not tested)
Experimental: The resulting test suspensions were then used in Tests A-F. The test suspension was sprayed to the point of run-off on wheat seedlings. The following day the seedlings were inoculated with a spore dust of Blumeria graminis f. sp. tritici, (also known as Erysiphe graminis f. sp. tritici, the causal agent of wheat powdery mildew) and incubated in a growth chamber at 20° C. for 8 days, after which time visual disease ratings were made. A rating of 100 indicates 100% disease control and a rating of 0 indicates no disease control (relative to the controls). A dash (—) indicates the compound was not tested.

[2] = system: Zymoseptoria tritici; test: Test A: test solution sprayed on wheat seedlings, inoculated next day with Zymoseptoria tritici (wheat leaf blotch); disease rating (100 = 100% disease control, 0 = no control; dash = not tested)
Experimental: The resulting test suspensions were then used in Tests A-F. The test solution was sprayed to the point of run-off on wheat seedlings. The following day the seedlings were inoculated with a spore suspension of Zymoseptoria tritici (the causal agent of wheat leaf blotch) and incubated in a saturated atmosphere at 24° C. for 48 h, and then moved to a growth chamber at 20° C. for 17 days, after which time disease ratings were made. A rating of 100 indicates 100% disease control and a rating of 0 indicates no disease control (relative to the controls). A dash (—) indicates the compound was not tested.

[3] = system: Phakopsora pachyrhizi; test: Test D: test solution sprayed on soybean seedlings, inoculated next day with Phakopsora pachyrhizi (Asian soybean rust); visual disease rating (100 = 100% disease control, 0 = no control; dash = not tested)
Excerpt: General protocol for preparing test suspensions for Tests A-F: the test compounds were first dissolved in acetone in an amount equal to 3% of the final volume and then suspended at the desired concentration (in ppm) in acetone and purified water (50/50 mix by volume) containing 250 ppm of the surfactant PEG400 (polyhydric alcohol esters). The resulting test suspensions were then used in Tests A-F.
The test solution was sprayed to the point of run-off on soybean seedlings. The following day the seedlings were inoculated with a spore suspension of Phakopsora pachyrhizi (the causal agent of Asian soybean rust) and incubated in a saturated atmosphere at 22° C. for 24 h and then moved to a growth chamber at 22° C. for 8 days, after which time visual disease ratings were made.
A rating of 100 indicates 100% disease control and a rating of 0 indicates no disease control (relative to the controls). A dash (—) indicates the compound was not tested.

[4] = system: Alternaria solani; test: Test F: test suspension sprayed on tomato seedlings, inoculated next day with Alternaria solani (tomato early blight); visual disease rating (100 = 100% disease control, 0 = no control; dash = not tested)
Experimental: (§1) The resulting test suspensions were then used in Tests A-F. The test suspension was sprayed to the point of run-off on tomato seedlings. The following day the seedlings were inoculated with a spore suspension of Alternaria solani (the causal agent of tomato early blight) and incubated in a saturated atmosphere at 27° C. for 48 h, and then moved to a growth chamber at 20° C. for 3 days, after which time visual disease ratings were made. A rating of 100 indicates 100% disease control and a rating of 0 indicates no disease control (relative to the controls). A dash (—) indicates the compound was not tested.

[5] = system: Puccinia recondita f. sp. tritici; test: Test B: test solution sprayed on wheat seedlings, inoculated next day with Puccinia recondita f. sp. tritici (wheat leaf rust); disease rating (100 = 100% disease control, 0 = no control; dash = not tested)
Excerpt: The resulting test suspensions were then used in Tests A-F. The test solution was sprayed to the point of run-off on wheat seedlings. […] A rating of 100 indicates 100% disease control and a rating of 0 indicates no disease control (relative to the controls). A dash (—) indicates the compound was not tested.

[6] = system: Botrytis cinerea; test: Test E: test suspension sprayed on tomato seedlings, inoculated next day with Botrytis cinerea (tomato Botrytis); visual disease rating (100 = 100% disease control, 0 = no control; dash = not tested)
Experimental: as §1, with “Botrytis cinerea” for “Alternaria solani”, “Botrytis)” for “early blight)”, “20°” for “27°”, “24°” for “20°”

SMILES	Test C disease control rating [1]	Test A disease control rating [2]	Test D disease control rating [3]	Test F disease control rating [4]	Test B disease control rating [5]	Test E disease control rating [6]	pest or weed control at 50 ppm [1]	pest or weed control at 50 ppm [2]	pest or weed control at 50 ppm [3]	pest or weed control at 50 ppm [4]	pest or weed control at 50 ppm [5]	pest or weed control at 50 ppm [6]
COc1cc(OC)c(Cl)c(-c2nn(C)c(=O)c(C)c2-c2ccc(F)cc2Cl)c1Cl [Compound 47]	43%	52%	0%	0%	68%	91%	–	–	–	–	–	–
COc1ccc(Cl)c(-c2nn(C)c(=O)c(OC)c2-c2ccc(F)cc2F)c1 [Compound 48]	99%	100%	97%	99%	100%	98%	–	–	–	–	–	–
Cn1nc(-c2cc(C#N)ccc2Cl)c(-c2ccc(F)cc2Cl)c(Cl)c1=O [Compound 49]	98%	100%	96%	99%	100%	96%	–	–	–	–	–	–
COc1ccc(Cl)c(-c2nn(C)c(=O)c(OC)c2-c2c(F)cccc2F)c1 [Compound 50]	99%	100%	36%	100%	98%	96%	–	–	–	–	–	–
COc1cc(C#N)c(Cl)c(-c2nn(C)c(=O)c(Cl)c2-c2ccc(F)cc2Cl)c1 [Compound 51]	99%	100%	100%	100%	100%	96%	–	–	–	–	–	–
COc1cc(-c2nn(C)c(=O)c(Cl)c2-c2ccc(F)cc2Cl)cc(C#N)c1Cl [Compound 52]	99%	100%	98%	100%	100%	92%	–	–	–	–	–	–
COc1c(-c2ccc(F)cc2Cl)c(-c2cc(C#N)ccc2Cl)nn(C)c1=O [Compound 53]	99%	100%	68%	40%	100%	92%	–	–	–	–	–	–
COc1cc(OC)cc(-c2nn(C)c(=O)c(Cl)c2-c2ccc(F)cc2Cl)c1 [Compound 55]	98%	99%	99%	99%	100%	99%	–	–	–	–	–	–
Cn1nc(-c2ccc(F)cc2Cl)c(-c2ccc(F)cc2Cl)c(Cl)c1=O [Compound 60]	99%	100%	93%	99%	100%	98%	–	–	–	–	–	–
COc1cc(OC)c(Br)c(-c2nn(C)c(=O)c(Br)c2-c2ccc(F)cc2Cl)c1 [Compound 61]	94%	100%	99%	99%	100%	100%	–	–	–	–	–	–
COc1cc(OC)c(Br)c(-c2nn(C)c(=O)c(C)c2-c2ccc(F)cc2Cl)c1 [Compound 64, 6-(2-bromo-3,5-dimethoxyphenyl)-5-(2-chloro-4-fluorophenyl)-2,4-dimethyl-3(2H)-pyridazinone]	–	–	–	–	–	–	100%	100%	100%	100%	100%	100%
COc1cc(OC)cc(-c2nn(C)c(=O)c(C)c2-c2ccc(F)cc2Cl)c1 [Compound 65]	98%	99%	94%	99%	100%	100%	–	–	–	–	–	–
COc1cc(OC)cc(-c2nn(C)c(=O)c(Br)c2-c2ccc(F)cc2Cl)c1 [Compound 67]	95%	99%	98%	99%	100%	99%	–	–	–	–	–	–
COc1ccc(Cl)c(-c2nn(C)c(=O)c(Br)c2-c2c(F)cccc2F)c1 [Compound 69]	100%	100%	100%	100%	99%	100%	–	–	–	–	–	–
Cn1nc(-c2ccc(F)cc2Cl)c(-c2ccc(F)cc2Cl)cc1=O [Compound 70]	76%	93%	52%	0%	41%	98%	–	–	–	–	–	–
COc1cc(C#N)cc(-c2nn(C)c(=O)cc2-c2c(F)cccc2F)c1 [Compound 71]	0%	8%	0%	0%	0%	16%	–	–	–	–	–	–
Cn1nc(-c2ccccc2F)c(-c2ccc(F)cc2Cl)c(Cl)c1=O [Compound 72]	99%	100%	75%	99%	99%	98%	–	–	–	–	–	–
Cn1nc(-c2ccccc2Cl)c(-c2ccc(F)cc2Cl)c(Cl)c1=O [Compound 73]	99%	100%	97%	99%	100%	99%	–	–	–	–	–	–
CCn1nc(-c2cc(OC)cc(OC)c2Br)c(-c2c(F)cccc2F)c(OC)c1=O [Compound 74]	98%	100%	75%	0%	99%	99%	–	–	–	–	–	–
CCn1nc(-c2cc(OC)cc(OC)c2Cl)c(-c2c(F)cccc2F)c(OC)c1=O [Compound 75]	98%	100%	69%	0%	99%	97%	–	–	–	–	–	–
COc1cc(F)cc(-c2nn(C)c(=O)c(Cl)c2-c2ccc(F)cc2Cl)c1 [Compound 76]	99%	100%	99%	99%	100%	97%	–	–	–	–	–	–
COc1cc(OC)c(Br)c(-c2nn(C)c(=O)c(Cl)c2-c2ccc(F)cc2Cl)c1 [Compound 77, 6-(2-bromo-3,5-dimethoxyphenyl)-4-chloro-5-(2-chloro-4-fluorophenyl)-2-methyl-3(2H)-pyridazinone]	–	–	–	–	–	–	99%	100%	100%	100%	100%	97%
COc1cc(OC)cc(-c2nn(C)c(=O)c(OC)c2-c2ccc(F)cc2Cl)c1 [Compound 78]	98%	100%	59%	99%	99%	95%	–	–	–	–	–	–
